Data: US9840513B2 (AbbVie S.à.r.l., priority 2015, dated 2017)
pEC50: −log10 of the molar value.

How the values were obtained:
[1] = molecular target: T1, F508delCFTR cell surface expression in CFBE41o-F508delCFTR-HRP cells (Homo sapiens, UniProt P13569, DEL508-508); test: Cell Surface Expression-Horse Radish Peroxidase (CSE-HRP) Assay; type: cell-based; conditions: for pEC50: CFBE41o-F508delCFTR-HRP cells, 18-24 hours at 33° C., 8-point curve, highest concentration 20 μM; for Maximum % activity (%): maximum at any tested concentration, normalized to on-plate positive control (3 μM)
T1 construct: fused on or other part: Horseradish peroxidase (HRP) reporter inserted in the fourth exofacial (extracellular) loop of CFTR; expression is doxycycline-inducible
Method in brief: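 Correctors incubated 18-24 h at 33 °C on doxycycline-induced (0.5 μg/mL, 72 h) CFBE41o-F508delCFTR-HRP cells, 3-fold series from 20 μM. After DPBS washes, luminol luminescence read; activity expressed relative to DMSO and a 3 μM positive control, EC50 fitted from triplicate plates.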

[2] = molecular target: T2, F508delCFTR in primary hBE cells with F508del/F508del CFTR mutation (Homo sapiens, UniProt P13569, DEL508-508); test: Transepithelial Clamp Circuit on Human Bronchial Epithelial Cells Conductance Assay (hBE-TECC); type: cell-based; conditions: for pEC50: primary hBE cells F508del/F508del, 18-24 hours at 37° C., equivalent short circuit current, 6 concentrations
T2 construct: cells isolated from CF patients with the homozygous mutation; endogenous in cells; host or cells: primary human bronchial epithelial (hBE) cells from F508del/F508del CF patients
From the text: Transepithelial Clamp Circuit on Human Bronchial Epithelial Cells Conductance Assay:
A cell based assay using the primary human bronchial epithelial cells (hBE) was used as a secondary assay to test novel F508delCFTR correctors for their activity on primary hBE cells with F508del/F508del CFTR mutation. The assay used a TECC-24 (Transepithelial Clamp Circuit for 24 wells) instrument that measures the functionality of the mutated channel by measuring the equivalent short circuit current (Ieq) generated by the polarized epithelial cells. The instrument works by measuring the transepithelial potential difference (Vt) and transepithelial resistance (Rt) in an open circuit format, and the Ieq is calculated by using Ohms law (Ieq=Vt/Rt). The assay was run in a 24-well format and all 24-wells were measured at the same time point giving a higher throughput for this assay.
Primary human bronchial epithelial (hBE) cells from F508del/F508delCFTR patients were expanded from 1×10^6 to 250×10^6 cells (Neuberger T, Burton B, Clark H and VanGoor F; Cystic Fibrosis, Methods in Mole Biol 741; eds. Amaral M D and Kunzelmann K, 2011). For this purpose, cells isolated from CF patients with the homozygous mutation were seeded onto 24 well Corning (Cat #3378) filter plates that were coated with 3T3 conditioned media and grown at an air-liquid interface for 35 days using an Ultroser® G supplemented differentiation media. Apical surface mucus was removed 72 hours before the experiment using 3 mM dithiothreitol (DTT) in phosphate buffered saline (PBS). The apical surface was washed again 24 hours before the experiment using PBS. The cells were incubated with the desired dose response of the corrector compounds 18-24 hours at 37° C., 5% CO2. The corrector compounds are only added on the basolateral side of the epithelial cells.
On the day of measuring the corrector activity on the TECC, the cells were switched into a bicarbonate and serum free F-12 Coon's medium and allowed to equilibrate for 90 minutes in a CO2 free incubator. At the time of measurement, the apical and basolateral sides of the filter were bathed with the F-12 Coon's modification media (with 20 mM 4-(2-hydroxyethyl)-1-piperazineethanesulfonic acid (HEPES), pH 7.4 (using 1 M tris(hydroxymethyl)aminomethane (Tris)), and the measurements were made at 36.5° C. Transepithelial voltage (Vt) and transepithelial resistance (Rt) were measured using a 24 channel transepithelial current clamp (TECC-24). Current responses to the sequential addition of benzamil (apical 6 μM addition; for inhibiting epithelial ENaC channel), forskolin (apical and basolateral 10 μM addition; for activating the CFTR channel), control potentiator (N-(3-carbamoyl-5,5,7,7-tetramethyl-4,7-dihydro-5H-thieno[2,3-c]pyran-2-yl)-1H-pyrazole-5-carboxamide; apical and basolateral […] addition; for potentiating the CFTR channel) and bumetanide (basolateral 20 μM addition; for inhibiting the Na:2Cl:K co-transporter, an indirect measure of inhibiting the Cl-secretion driven by CFTR channel) were measured.
All plates contained negative controls (dimethyl sulfoxide, DMSO) which coupled with the control potentiator (N-(3-carbamoyl-5,5,7,7-tetramethyl-4,7-dihydro-5H-thieno[2,3-c]pyran-2-yl)-1H-pyrazole-5-carboxamide) sets the null response and positive controls (3 μM of 3-[(2R,4R)-4-({[1-(2,2-difluoro-1,3-benzodioxol-5-yl)cyclopropyl]carbonyl}amino)-7-methoxy-3,4-dihydro-2H-chromen-2-yl]benzoic acid) coupled with the control potentiator sets the 100% response to measure the correction of the mutated CFTR channel. The maximum percent activity is reported relative to the positive control value.
The % activity measured at each of the 6 test concentrations of the test compound was normalized to the on-plate positive control using the following formula: % activity=[[…]]*100 […]

[3] = relative to positive control (3 μM) coupled with control potentiator

T2 sequence (P13569 with tags, fused parts or gaps DEL508-508): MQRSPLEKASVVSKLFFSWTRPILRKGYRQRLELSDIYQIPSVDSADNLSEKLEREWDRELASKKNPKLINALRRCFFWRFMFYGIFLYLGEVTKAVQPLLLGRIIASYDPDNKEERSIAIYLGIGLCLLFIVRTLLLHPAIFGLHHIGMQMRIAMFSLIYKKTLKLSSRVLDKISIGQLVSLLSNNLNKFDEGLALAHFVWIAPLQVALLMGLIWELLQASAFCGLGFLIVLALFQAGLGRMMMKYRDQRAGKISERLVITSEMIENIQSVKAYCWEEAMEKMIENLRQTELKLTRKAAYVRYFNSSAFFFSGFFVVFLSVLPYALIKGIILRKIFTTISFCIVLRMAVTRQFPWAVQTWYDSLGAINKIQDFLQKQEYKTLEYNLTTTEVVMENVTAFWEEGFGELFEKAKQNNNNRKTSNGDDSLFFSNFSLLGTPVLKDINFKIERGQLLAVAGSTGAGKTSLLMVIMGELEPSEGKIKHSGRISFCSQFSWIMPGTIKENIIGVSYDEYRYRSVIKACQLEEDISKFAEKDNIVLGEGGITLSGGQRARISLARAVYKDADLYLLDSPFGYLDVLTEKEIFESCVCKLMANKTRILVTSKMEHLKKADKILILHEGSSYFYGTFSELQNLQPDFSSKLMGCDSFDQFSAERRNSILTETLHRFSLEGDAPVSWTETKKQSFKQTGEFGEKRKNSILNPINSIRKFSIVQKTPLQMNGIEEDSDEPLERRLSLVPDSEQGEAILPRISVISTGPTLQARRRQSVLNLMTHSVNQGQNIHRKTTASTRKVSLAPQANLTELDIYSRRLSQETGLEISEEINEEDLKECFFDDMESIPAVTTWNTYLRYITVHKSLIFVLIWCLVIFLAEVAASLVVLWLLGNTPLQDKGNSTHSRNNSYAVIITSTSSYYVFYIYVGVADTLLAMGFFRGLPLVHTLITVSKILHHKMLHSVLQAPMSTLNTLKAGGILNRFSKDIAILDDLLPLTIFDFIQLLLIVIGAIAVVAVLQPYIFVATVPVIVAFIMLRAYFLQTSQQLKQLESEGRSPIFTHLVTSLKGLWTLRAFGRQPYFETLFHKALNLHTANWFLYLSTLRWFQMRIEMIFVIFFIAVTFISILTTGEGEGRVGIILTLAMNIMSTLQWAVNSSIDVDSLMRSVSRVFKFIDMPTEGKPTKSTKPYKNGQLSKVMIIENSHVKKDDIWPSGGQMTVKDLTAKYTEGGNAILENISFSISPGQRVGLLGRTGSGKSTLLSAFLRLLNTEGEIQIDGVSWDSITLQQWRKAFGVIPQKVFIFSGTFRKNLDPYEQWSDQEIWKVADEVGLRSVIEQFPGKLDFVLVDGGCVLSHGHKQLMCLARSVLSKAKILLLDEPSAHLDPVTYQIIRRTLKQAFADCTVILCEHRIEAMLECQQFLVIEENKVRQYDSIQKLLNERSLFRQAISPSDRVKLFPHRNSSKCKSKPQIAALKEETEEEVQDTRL
T1 sequence (P13569 with tags, fused parts or gaps DEL508-508 limits assumed): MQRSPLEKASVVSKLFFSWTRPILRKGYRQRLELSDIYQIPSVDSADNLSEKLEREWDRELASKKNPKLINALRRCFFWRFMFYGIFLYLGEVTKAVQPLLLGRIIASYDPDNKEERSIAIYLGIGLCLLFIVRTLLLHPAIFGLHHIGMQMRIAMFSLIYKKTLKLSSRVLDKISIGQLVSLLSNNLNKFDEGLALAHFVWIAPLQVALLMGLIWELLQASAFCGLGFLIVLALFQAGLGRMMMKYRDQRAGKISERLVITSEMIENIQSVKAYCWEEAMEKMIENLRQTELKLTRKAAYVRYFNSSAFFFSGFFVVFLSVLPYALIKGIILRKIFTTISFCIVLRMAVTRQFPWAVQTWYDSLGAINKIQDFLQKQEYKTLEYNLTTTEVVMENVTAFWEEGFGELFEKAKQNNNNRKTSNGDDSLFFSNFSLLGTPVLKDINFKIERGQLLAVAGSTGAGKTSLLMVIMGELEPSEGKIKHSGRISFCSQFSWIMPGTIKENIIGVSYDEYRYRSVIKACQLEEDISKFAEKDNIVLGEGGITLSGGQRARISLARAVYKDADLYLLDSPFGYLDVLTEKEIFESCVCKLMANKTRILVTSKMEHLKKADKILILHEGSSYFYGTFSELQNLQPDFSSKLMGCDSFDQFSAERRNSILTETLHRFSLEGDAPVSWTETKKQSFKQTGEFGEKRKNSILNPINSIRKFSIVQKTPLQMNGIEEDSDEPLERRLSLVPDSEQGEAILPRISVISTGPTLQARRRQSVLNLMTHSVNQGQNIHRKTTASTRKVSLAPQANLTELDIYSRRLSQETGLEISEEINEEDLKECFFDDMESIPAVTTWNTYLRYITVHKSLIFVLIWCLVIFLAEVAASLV
T1 sequence (P13569 919-1480 limits assumed, stated change not applied): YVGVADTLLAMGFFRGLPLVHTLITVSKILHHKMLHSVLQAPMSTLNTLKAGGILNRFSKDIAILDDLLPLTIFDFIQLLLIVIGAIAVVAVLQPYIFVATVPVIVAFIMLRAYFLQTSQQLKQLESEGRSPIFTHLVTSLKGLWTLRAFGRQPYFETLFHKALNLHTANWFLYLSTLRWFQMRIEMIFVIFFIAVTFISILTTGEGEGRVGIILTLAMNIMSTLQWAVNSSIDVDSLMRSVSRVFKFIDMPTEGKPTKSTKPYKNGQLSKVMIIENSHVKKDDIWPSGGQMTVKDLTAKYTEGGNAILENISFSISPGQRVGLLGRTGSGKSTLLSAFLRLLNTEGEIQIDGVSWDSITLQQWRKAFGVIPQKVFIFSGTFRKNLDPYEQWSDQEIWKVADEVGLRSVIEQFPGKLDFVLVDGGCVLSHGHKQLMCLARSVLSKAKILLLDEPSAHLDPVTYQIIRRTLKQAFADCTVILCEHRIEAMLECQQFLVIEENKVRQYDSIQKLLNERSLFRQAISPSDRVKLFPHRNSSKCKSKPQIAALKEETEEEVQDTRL

| SMILES | pEC50 [1] | Maximum % activity (%) [1] [%] | pEC50 [2] | Maximum % activity (%) [2, 3] [%] | Maximum % activity (%) ([2]; testing concentration 10 μM) | Maximum % activity (%) ([2]; testing concentration 1 μM) | Maximum % activity (%) ([2]; testing concentration 3 μM) |
| --- | --- | --- | --- | --- | --- | --- | --- |
| COc1ccc2c(c1)O[C@@H](c1ccc(CO)nc1)C[C@H]2NC(=O)[C@@]1(C)COc2cc3c(cc21)OC(F)(F)O3 [Example 178, (7R)-2,2-difluoro-N-{(2R,4R)-2-[6-(hydroxymethyl)pyridin-3-yl]-7-methoxy-3,4-dihydro-2H-1-benzopyran-4-yl}-7-methyl-6,7-dihydro-2H-furo[2,3-f][1,3]benzodioxole-7-carboxamide] | 6.54 | 158 | 7.18 | 108 |  |  |  |
| Cc1ccc(NC(=O)[C@@]2(C)COc3cc4c(cc32)OC(F)(F)O4)nc1-c1ccc(C(=O)O)cc1 [Example 83, 4-(6-{[(7R)-2,2-difluoro-7-methyl-6,7-dihydro-2H-furo[2,3-f][1,3]benzodioxole-7-carbonyl]amino}-3-methylpyridin-2-yl)benzoic acid] | 6.62 | 172 |  |  | 100 |  |  |
| C[C@]1(C(=O)N[C@@H]2C[C@H]([C@H]3CC[C@H](C(=O)N4C[C@H](O)[C@@H](O)C4)CC3)Oc3cc(OC(F)(F)F)ccc32)COc2cc3c(cc21)OC(F)(F)O3 [Example 256, (7R)—N-[(2R,4R)-2-{trans-4-[(3S,4S)-3,4-dihydroxypyrrolidine-1-carbonyl]cyclohexyl}-7-(trifluoromethoxy)-3,4-dihydro-2H-1-benzopyran-4-yl]-2,2-difluoro-7-methyl-6,7-dihydro-2H-furo[2,3-f][1,3]benzodioxole-7-carboxamide] | 7.22 | 168 | 8.00 | 106 |  |  |  |
| C[C@]1(C(=O)N[C@@H]2C[C@H](c3ccc(CO)cn3)Oc3cc(OC(F)(F)F)ccc32)COc2cc3c(cc21)OC(F)(F)O3 [Example 177, (7R)-2,2-difluoro-N-[(2R,4R)-2-[5-(hydroxymethyl)pyridin-2-yl]-7-(trifluoromethoxy)-3,4-dihydro-2H-1-benzopyran-4-yl]-7-methyl-6,7-dihydro-2H-furo[2,3-f][1,3]benzodioxole-7-carboxamide] | 7.05 | 127 | 7.89 | 99 |  |  |  |
| C[C@]1(C(=O)Nc2ccc(Cl)c(-c3cccc(C(=O)O)c3)n2)COc2cc3c(cc21)OC(F)(F)O3 [Example 95, 3-(3-chloro-6-{[(7R)-2,2-difluoro-7-methyl-6,7-dihydro-2H-furo[2,3-f][1,3]benzodioxole-7-carbonyl]amino}pyridin-2-yl)benzoic acid] | 6.23 | 167 |  |  |  | 50 |  |
| COc1ccc2c(c1)O[C@@H](c1ccc(C(=O)O)cc1)C[C@H]2NC(=O)[C@]1(C)CCc2c1ccc1c2OCO1 [Example 46, 4-[(2R,4R)-7-methoxy-4-{[(6R)-6-methyl-7,8-dihydro-2H,6H-indeno[4,5-d][1,3]dioxole-6-carbonyl]amino}-3,4-dihydro-2H-1-benzopyran-2-yl]benzoic acid] | 6.37 | 142 | 6.66 | 105 |  |  |  |
| CC1(C(=O)N[C@@H]2C[C@H](c3cccc(C(=O)O)c3)Oc3ccccc32)CCc2cc3c(cc21)OC(F)(F)O3 (stereo partly drawn) [Example 35, 3-{(2R,4R)-4-[(2,2-difluoro-5-methyl-6,7-dihydro-2H,5H-indeno[5,6-d][1,3]dioxole-5-carbonyl)amino]-3,4-dihydro-2H-1-benzopyran-2-yl}benzoic acid] | 6.03 | 76 |  |  |  |  | 80 |
| C[C@]1(C(=O)N[C@H]2C[C@@H]([C@H]3CC[C@H](C(=O)O)CC3)Oc3cc(OC(F)(F)F)ccc32)COc2cc3c(cc21)OC(F)(F)O3 [Example 149, trans-4-[(2S,4S)-4-{[(7R)-2,2-difluoro-7-methyl-6,7-dihydro-2H-furo[2,3-f][1,3]benzodioxole-7-carbonyl]amino}-7-(trifluoromethoxy)-3,4-dihydro-2H-1-benzopyran-2-yl]cyclohexane-1-carboxylic acid] | 5.66 | 44 | 6.08 | 24 |  |  |  |
| CCCN(CCO)C(=O)[C@H]1CC[C@H]([C@H]2C[C@@H](NC(=O)[C@@]3(C)COc4cc5c(cc43)OC(F)(F)O5)c3ccc(OC(F)(F)F)cc3O2)CC1 [Example 263, (7R)-2,2-difluoro-N-[(2R,4R)-2-{trans-4-[(2-hydroxyethyl)(propyl)carbamoyl]cyclohexyl}-7-(trifluoromethoxy)-3,4-dihydro-2H-1-benzopyran-4-yl]-7-methyl-6,7-dihydro-2H-furo[2,3-f][1,3]benzodioxole-7-carboxamide] | 7.15 | 167 | 8.40 | 118 |  |  |  |
| C[C@]1(C(=O)N[C@@H]2C[C@H](C3(C(=O)N4C[C@H](O)[C@@H](O)C4)CC3)Oc3cc(OC(F)(F)F)ccc32)COc2cc3c(cc21)OC(F)(F)O3 [Example 282, (7R)—N-[(2R,4R)-2-{1-[(3S,4S)-3,4-dihydroxypyrrolidine-1-carbonyl]cyclopropyl}-7-(trifluoromethoxy)-3,4-dihydro-2H-1-benzopyran-4-yl]-2,2-difluoro-7-methyl-6,7-dihydro-2H-furo[2,3-f][1,3]benzodioxole-7-carboxamide] | 5.73 | 135 | 6.55 | 100 |  |  |  |
| COc1ccc2c(c1)O[C@@H](c1ccc(C(=O)NCC(O)CO)cn1)C[C@H]2NC(=O)[C@@]1(C)COc2cc3c(cc21)OC(F)(F)O3 (stereo partly drawn) [Example 243, 6-[(2R,4R)-4-{[(7R)-2,2-difluoro-7-methyl-6,7-dihydro-2H-furo[2,3-f][1,3]benzodioxole-7-carbonyl]amino}-7-methoxy-3,4-dihydro-2H-1-benzopyran-2-yl]-N-(2,3-dihydroxypropyl)pyridine-3-carboxamide] | 7.15 | 112 | 7.68 | 87 |  |  |  |
| C[C@]1(C(=O)N[C@@H]2C[C@H]([C@H]3CC[C@H](C(=O)NCCO)CC3)Oc3cc(OC(F)(F)F)ccc32)COc2cc3c(cc21)OC(F)(F)O3 [Example 261, (7R)-2,2-difluoro-N-[(2R,4R)-2-{trans-4-[(2-hydroxyethyl)carbamoyl]cyclohexyl}-7-(trifluoromethoxy)-3,4-dihydro-2H-1-benzopyran-4-yl]-7-methyl-6,7-dihydro-2H-furo[2,3-f][1,3]benzodioxole-7-carboxamide] | 7.22 | 157 | 7.68 | 104 |  |  |  |
